Where “and” joins values, the source holds several entries; their conditions need not be identical. Identical values can stand only once. Like-named read-outs stand apart in the source and are kept apart here. Ends that are not written are not given here.
How the values were obtained:
PRV Ea strain = assay type: cell-based, pseudorabies virus
PEDV YNKM strain = assay type: cell-based, porcine epidemic diarrhea virus; details: for residual infectivity: n = 3
[1] = tested on: PRV-152 (modified Bartha strain); assay type: cell-based, pseudorabies virus; details: n = 3
PRRSV YA isolate = assay type: cell-based, porcine reproductive and respiratory syndrome virus
PRV-Ea [2] = assay type: cell-based, pseudorabies virus
PRV-Ea [3] = tested on: PRV-Ea
PRV-HNXX = assay type: cell-based, pseudorabies virus; details: n = 3
RV TM-a strain = assay type: cell-based, rotavirus; details: n = 3
TGEV WH-1 strain = assay type: cell-based, transmissible gastroenteritis virus; details: for residual infectivity: n = 3
PRV-Ea [4] = tested on: PRV-Ea; remark: listed apart in the source

Row | Compound | 50% toxic concentration (TC50) (PK-15 cells; 48 h) [µg/mL] | antiviral activity against PRV (in words) (PRV Ea strain) | residual infectivity (PRV Ea strain; n = 3) | residual infectivity (PEDV YNKM strain) | decrease in the residual infectivity (PRV Ea strain) | inhibitory activity against PRV 152 (in words) [1] | inhibitory effect on PRV, post-infection (curative) (PRV-Ea [2]) | inhibitory effect on PRV, pre-infection (prophylactic) (PRV-Ea [2]) | inhibition of PRV particles (in words) (PRV-Ea [3]) | 50% effective concentration (EC50) (PRV-Ea [3]; 1 h) [µg/mL] | inhibitory activity against PRV HNXX (in words) (PRV-HNXX) | residual infectivity (RV TM-a strain) | residual infectivity (TGEV WH-1 strain) [%] | further results
1 | CC[C@H](C)[C@H](N)C(=O)N[C@@H](CC(C)C)C(=O)N1CCC[C@H]1C(=O)N[C@@H](Cc1c[nH]c2ccccc12)C(=O)N[C@@H](CCCCN)C(=O)N[C@@H](Cc1c[nH]c2ccccc12)C(=O)N1CCC[C@H]1C(=O)N[C@@H](Cc1c[nH]c2ccccc12)C(=O)N[C@@H](Cc1c[nH]c2ccccc12)C(=O)N1CCC[C@H]1C(=O)N[C@@H](Cc1c[nH]c2ccccc12)C(=O)N[C@@H](CCCNC(=N)N)C(=O)N[C@@H](CCCNC(=N)N)C(N)=O [indolicidin] | 110.2 | mild antiviral activity | 34.6% | – | – | – | – | – | – | – | – | – | – | –
2 | GLLSVLGSVAKHVLPHVVPVIAEHL-NH2 (C-terminus assumed) [caerin, caerin 1.1] | 67.8 | – | around 2.3% | 0.2% | more than 30 folds | displayed inhibitory activities | No inhibitory effect | No inhibitory effect | inhibit most of the PRV particles | 2.63 | displayed inhibitory activities | lower than 50% | – | residual infectivity (PRRSV YA isolate; n = 3): 41.1%
3 | GLFGVLAKVAAHVVPAIAEHF-NH2 (C-terminus assumed) [maculatin, maculatin 1.1] | 76.6 | – | 10.1% and 10.11% | – | – | displayed inhibitory activities | No inhibitory effect | No inhibitory effect | inhibit most of the PRV particles | 1.09 | displayed inhibitory activities | 43.4% | – | activity against PEDV (in words) (PEDV YNKM strain): limited activity; residual infectivity (PRV Ea strain): 0.0017%; activity against PRRSV (in words) (PRRSV YA isolate): limited activity; activity against TGEV (in words) (TGEV WH-1 strain): limited activity
4 | FKCRRWQWRMKKLGAPSITCVRRAF [lactoferricin B] | – | mild antiviral activity | – | – | – | – | – | – | – | – | – | – | 54.1 | cytotoxic activity at maximum concentration (PK-15 cells): did not exhibit obvious cytotoxic activity
5 | FFHHIFRGIVHVGKTIHRLVTG [piscidin, piscidin 1] | – | – | around 2.3% | lower than 50% | more than 30 folds | displayed inhibitory activities | No inhibitory effect | No inhibitory effect | inhibit most of the PRV particles | – | displayed inhibitory activities | 7.4% | 41.5 | 50% toxic concentration (TC50) (PK-15 cells): 65.2 µg/mL; brain pathology (H&E) (PRV-Ea [4]; mouse, in vivo): no specific symptom; clinical signs, peptide alone (PRV-Ea [4]; mouse, in vivo): remained asymptomatic; clinical symptoms versus PRV infected mice (PRV-Ea [4]; mouse, in vivo): symptoms appeared later and not so severe; outcome after re-challenge (PRV-Ea [4]; mouse, in vivo): all died; protection against PRV infection (in words) (PRV-Ea [4]; mouse, in vivo): obviously protected; survival and behaviour after peptide alone (PRV-Ea [4]; mouse, in vivo): All mice survived and behaved normally; survival rate of mice (PRV-Ea [4]; mouse, in vivo): 90%; survival rates at the end of the experiment (PRV-Ea [4]; mouse, in vivo): 30%; mice with severe neurological symptoms euthanized (PRV-Ea [4]; n = 10): 6 and 5 and 7; 50% effective concentration (EC50) (PRV-Ea [3]; n = 3): 0.23 µg/mL
